For data set [1], the system named is Staphylococcus aureus FDA209P. Set-up: method as in PMID 19078849. The following applies: 1 × 10^5 CFU, 48 h with shaking, turbidimetric; cited from earlier work.
A short description of the next data set: MTT viability, IEC6. The class given is cell-based. The conditions noted are these: rat, IEC-6 small intestine epithelial cells, 1000 µM (IC50 exceeded 1000 µM), read-out: viability ± standard deviation at 1000 µM. The method in brief:
(§1)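 Read-out: MTT formazan absorbance at 570 nm, expressed as treated/control optical density ratio, mean ± SD of three experiments in five replicates. Cells seeded at 1 × 10^4 cells/100 µL, compound exposure 24 h, 37 °C, 5% CO2.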

Data set [2] relates to non-small cell lung cancer cells H460. On the set-up: method as in PMID 12753732. The following applies: cited from earlier work.
For data set [3], the system named is Escherichia coli ATCC 25922. Description: Micro-dilution broth MIC, Escherichia coli. The class given is cell-based. The following applies: ATCC25922, 24 h, 37 °C, read-out: Minimum Inhibitory Concentrations MIC. Summed up:
(§2)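 Micro-dilution in Mueller-Hinton broth, with compounds added from an ethanol stock to give 10–80 µg/mL. Inocula were standardised to 0.5 McFarland (1.5 × 10^8 CFU), and a broth-only well served as the growth control. Strains were precultured aerobically on Columbia agar at 37 °C for 24 h.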
(In general: In broth dilution the organism is exposed to a series of concentrations in liquid medium.)

A further data set deals with Keratinocytes HaCaT. Nature of the data set: MTT viability, HaCaT. The class given is cell-based, human. The conditions noted are these: Homo sapiens, 24 h, range 10–1000 µM, read-out: half maximal inhibitory concentration (IC50), interpolated. Summed up: as §1
In data set [4] the test system is Mycobacterium smegmatis mc^2 155 ATCC 700084. Set-up: method as in PMID 21042264. The following applies: micro-dilution, NCCLS guidelines; cited from earlier work.
Another data set concerns Fibroblasts HFIG. Nature of the data set: MTT viability, HFIG. The conditions noted are these: Homo sapiens, Fibroblast, 24 h, range 10–1000 µM, read-out: half maximal inhibitory concentration (IC50), interpolated. The class given is cell-based, human. Summed up: as §1
In the next data set the test system is Malignant Melanoma MEWO. Description: MTT viability, MEWO. In kind it is cell-based, human. The following applies: Homo sapiens, 24 h, range 10–1000 µM, read-out: half maximal inhibitory concentration (IC50), interpolated. Summed up: as §1
In data set [5] the test system is non-small cell lung cancer cells A549. On the set-up: method as in PMID 12753732. The following applies: cited from earlier work.
Data set [6] has as its system Klebsiella pneumoniae ATCC 700603. Nature of the data set: Micro-dilution broth MIC, Klebsiella pneumoniae. The class given is cell-based. The following applies: ATCC700603, 24 h, 37 °C, read-out: Minimum Inhibitory Concentrations MIC. The method in brief: as §2
For data set [7], the system named is Enterococcus faecalis ATCC 51299. Description: Micro-dilution broth MIC, Enterococcus faecalis. The class given is cell-based. The following applies: ATCC51299, 24 h, 37 °C, read-out: Minimum Inhibitory Concentrations MIC. The method in brief:
as §2

In data set [8] the test system is Enterococcus faecium ATCC 35667. Nature of the data set: Micro-dilution broth MIC, Enterococcus faecium. The class given is cell-based. The following applies: ATCC35667, 24 h, 37 °C, read-out: Minimum Inhibitory Concentrations MIC. Summed up: as §2
The subject of data set [9] is Promyelocytic Leukaemia HL-60. Nature of the data set: MTT viability, HL-60. The conditions noted are these: Homo sapiens, HL-60, 24 h, HL-60, MTT, range 10–1000 µM, read-out: half maximal inhibitory concentration (IC50), interpolated. The class given is cell-based, human. The method in brief:
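Viability is given as the optical density ratio of treated to control wells after 24 h compound treatment at 37 °C. Formazan from a 4 h MTT incubation is solubilised with SDS/DMF and measured at 570 nm.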

Data set [10] concerns Acinetobacter baumannii ATCC 19606. Nature of the data set: Micro-dilution broth MIC, Acinetobacter baumannii. The class given is cell-based. The following applies: ATCC19606, 24 h, 37 °C, read-out: Minimum Inhibitory Concentrations MIC. The method in brief:
as §2

Data set [11] relates to Colorectal Adenocarcinoma HT29. Nature of the data set: MTT viability, HT29. In kind it is cell-based, human. The following applies: Homo sapiens, HT-29, 24 h, range 10–1000 µM, read-out: half maximal inhibitory concentration (IC50), interpolated. The method in brief:
as §1

Data set [12] deals with Staphylococcus aureus ATCC 43300. Nature of the data set: Micro-dilution broth MIC, Staphylococcus aureus. The class given is cell-based. The conditions noted are these: ATCC43300, 24 h, 37 °C, read-out: Minimum Inhibitory Concentrations MIC. The method in brief: as §2

In brackets after ≈: the same amount, converted by molar mass.

What is called viability is a read-out of living cells in per cent, often relative to untreated cells. With `CC(C)=CCC/C(C)=C/CC/C(C)=C/CO` [Farnesol (4), farnesol, reference compound], in [1], the “concentration at which active” value was not below 10 µg/mL. Moreover, the viability at 24 h, 1000 µM in the data set “MTT viability, IEC6” stood at 58%. Besides, the IC50 was approximately 4.5 µM in [2]; 489 µM in the data set with Keratinocytes HaCaT; 350 µM in the data set on Fibroblasts HFIG; 378 µM in the data set on Malignant Melanoma MEWO; approximately 4.5 µM in data set [5]; 54 µM in [9]. Also, the IC50 in data set [11] turned out to be 930 µM. The MIC is 28 µg/mL (≈ 126 µM) in [3]; 64 µg/mL (≈ 288 µM) in [4]; 16 µg/mL (≈ 72 µM) in [6]; 18 µg/mL (≈ 80.9 µM) in data set [7]; 16 µg/mL (≈ 72 µM) in data set [8]; 18 µg/mL (≈ 80.9 µM) in data set [10]. The MIC in [12] was determined as 26 µg/mL (≈ 117 µM).
